Data taken from patent publication US20220062431A1, “COMPOUNDS COMPRISING STAPLED OR STITCHED PEPTIDES FOR IMPROVED DRUG DELIVERY” (Sutura Therapeutics Ltd, priority 2017, published 2022).
“Also recorded” adds a separate entry of the source. Positions of bridges follow the written chain, without caps; N, C: chain ends. Non-standard residues stand in square brackets, D forms with d. Residues, ends and D or L forms follow the SMILES beside them. *: point of attachment. FITC = O=C1OC2(c3ccc(O)cc3Oc3cc(O)ccc32)c2ccc(NC(=S)*)cc21; PEG6 = NCCOCCOCCOCCOCCOCCOCCC(=O)O; S5 = C=CCCC[C@](C)(N)C(=O)O

Legend:
HeLa pLuc 705 cells [1] = test: Flow cytometry uptake of FITC labeled CPAs (FL1+ cells, MFI); type: cell-based; conditions: 4 hours; for number of FL1 positive cells, cyclized vs non-cyclised (NC) peptide: cyclised peptide compared to its non-cyclised control
Method: (§1) HeLa pLuc705 cells were cultured in high glucose DMEM supplemented with 10% foetal calf serum (Sigma, UK) at 37° C. under an 8% CO2/92% air atmosphere.
(§2) HeLa pLuc705 cells were setup in 96 well plates with the appropriate dilutions of test compounds either FITC labeled peptides or FITC labeled PMO conjugates diluted into complete culture media (up to 100 µM). Cells were then then trypsinised, diluted to 4×10^5 cells per mL and 100 μL added to each well giving a final volume of 200 μL in each well. Cells were then incubated for either 4 or 24 hours at either 4 or 37° c.
(§3) Uptake of fluorescently-labelled PMO and peptides was determined by flow cytometry using an Accuri C6 flow cytometer. Cells were washed with PBS and glycine buffer then released with trypsin, and kept on ice before analysis in PBS containing 2.5% FBS. Cell fluorescence in single live cells was determined using FlowJo software after appropriate gating. Untreated cells were used to establish gating settings for the determination of the % fluorescein-positive cells, mean fluorescent intensity (MFI) was also calculated. Uptake was determined by gating cells that were able exclude cell-impermanent die (To-pro-3) indicating the ability of cells to retain membrane integrity.

HeLa pLuc 705 cells [2] = test: % viable cells judged by gated cells compared to negative controls (flow cytometry); type: cell-based
Method: as §1, §2, §3

Compound	MFI, cyclised vs non-cyclised (NC) peptide (HeLa pLuc 705 cells [1]; 2 way ANOVA)	number of FL1 positive cells, cyclized vs non-cyclised (NC) peptide (HeLa pLuc 705 cells [1]; 2 way ANOVA)	number of FL1 positive cells, cyclized vs non-cyclised (NC) peptide (HeLa pLuc 705 cells [1]; 2 way ANOVA, listed as K1E5-CP8M-FITC)	% cell viability compared to RCM1,5-P8M-FITC-3+ (HeLa pLuc 705 cells [2]; 4 hours, all concentrations)	% of cells recovered when normalized to untreated controls (% viable cells) (HeLa pLuc 705 cells [2]; 4 hours, cyclised versus non-cyclised peptide)	cellular toxicity / impact on cell viability (HeLa pLuc 705 cells [2]; all concentrations 0.05 to 100 μM, listed as K1E5-CP8M-FITC)	increase in viability comparing RCM1,5-P8M-FITC to K1E5-P8M-FITC (HeLa pLuc 705 cells [2]; over the range of concentrations (0.05 to 100 μM))	MFI compared between RCM1,5 charge variants (HeLa pLuc 705 cells [1]; at a given concentration, increase for 3+ at higher concentrations >1 μM)	FL1+ cells compared to other RCM1,5 charge variants (HeLa pLuc 705 cells [1]; over a range of concentrations)	viable cells over RCM1,5-CP8M-FITC-3+ and RCM1,5-CP8M-FITC-2+ (HeLa pLuc 705 cells [2]; 0.05 μM, 4 hours)
CC(C)C[C@@H]1NC(=O)[C@H](CCCNC(=N)N)NC(=O)[C@@H](NC(=O)[C@H](Cc2ccccc2)NC(=O)[C@H](CCCCN)NC(=O)[C@H](CCCNC(=N)N)NC(=O)CCOCCOCCOCCOCCOCCOCCNC(=S)Nc2ccc3c(c2)C(=O)OC32c3ccc(O)cc3Oc3cc(O)ccc32)CCC(=O)NCCCC[C@@H](C(N)=O)NC(=O)[C@H](Cc2ccccc2)NC1=O [K1E5-P8M-FITC] ({FITC-PEG6}-RKFERLFK-NH2; lactam 4-8; N-terminus assumed)	no interaction affect	no significant difference	no difference	increase	no significant difference	no adverse cellular toxicity; also recorded: do not have any negative impact	70-99%	–	–	–
CC[C@H](C)[C@H](NC(=O)CCOCCOCCOCCOCCOCCOCCNC(=S)Nc1ccc2c(c1)C(=O)OC21c2ccc(O)cc2Oc2cc(O)ccc21)C(=O)N[C@H](C(=O)N[C@@H](Cc1ccccc1)C(=O)N[C@@]1(C)CCCC=CCCC[C@@](C)(C(N)=O)NC(=O)[C@H](Cc2ccccc2)NC(=O)[C@H](CC(C)C)NC(=O)[C@H]([C@@H](C)CC)NC1=O)[C@@H](C)CC [RCM1,5-P8M-FITC-0+] ({FITC-PEG6}-IIF[S5]ILF[S5]-NH2; staple 4-8)	–	–	–	–	–	–	–	no significant difference	increase	increase
